# Measurements reported in patent publication US11028369B2, “Induced extended pluripotent stem cells, method of making and using” (Beihao Stem Cell and Regenerative Medicine Research …, priority 2015, dated 2021).
# Counter-ions that a name gives are not always drawn.
# Tests used:
# hEPS cells = assay: Maintenance of hEPS cells after withdrawal or replacement of DiM or MiH; format: cell-based, human; conditions: for maintenance of hEPS cells when DiM or MiH is replaced: inhibitor of the same target replaces DiM or MiH in LCDM; for maintenance of hEPS cells when DiM is replaced by MAPK signaling inhibitor: replacement of DiM
# Description: FIGS. 4A and 4B show the profiles of H3K4me3 and H3K27me3 chromatin marks over all genes in primed hES (n=2, technical replicates) and hEPS (n=2, technical replicates) cells. The standard error of mean (SEM) across the regions is calculated and shown as a semi-transparent shade around the mean curve. FIGS. 4C-D are bar graphs showing Q-PCR analysis of selected gene expression in hEPS cells under different conditions at passage 7. DiM (((S)-(+)-Dimethindene maleate) (FIG. 4C) and MiH (Minocycline hydrochloride) (FIG. 4D) were replaced with small molecules targeting to the same targets in the LCDM [hLIF (human leukemia inhibitory factor), CHIR99021, DiM, and MiH] condition. hEPS cells were cultured under LCM condition with an added small molecule selected from: DiM (2 μM), TH(5 μM), DES(5 μM), or cultured with DMSO (dimethyl sulfoxide) respectively (FIG. 4C) or under LCD condition with an added small molecule selected from MiH, BSI-201 (5 μM), NAM (100 μM), PJ34 (N-(6-Oxo-5,6-dihydro-phenanthridin-2-yl)-N,N-dimethylacetamide. HCl) (5 μM), or DMSO (FIG. 4D). Expression values are normalized to the mean value of the LCM+DiM (FIG. 4C) and LCD+MiH (FIG. 4D) sample. LCM: human LIF+CHIR99021+MiH; LCD: human LIF+CHIR99021+DiM. Center values indicate mean. Error bars indicate s.d. (n=3, technical replicates). TH: Tripelennamine HCL; DES: Desloratadine; BSI: BSI-201; NAM: Nicotinamide. […] Expression values are normalized to the mean value of the scramble control. Center values indicate mean. Error bars indicate s.d. (n=3, technical replicates). FIG. 4F is a bar graph showing a summary of chimera assays at E12.5. […] FIG. 4G is a bar graph showing a summary of chimeric assays of single-cell injection at the 8-cell embryo stage. […] ICM & TE, embryos with the integration of mouse cells into both ICM and TE.
# Human and mouse extended pluripotent stem cells were cultured in serum-free N2B27-LCDM medium in 20% O2, 5% CO2 conditions. To maintain human EPS cells in an undifferentiated state, the following criteria were used: a) avoidance of plating human EPS cells too sparsely; b) use of the proper quantity of freshly prepared MEF feeder cells; and c) not allowing human EPS cells to overgrow (for example, attain more than 90% confluence; preferably, the cells should be at less than 90% confluent). Accordingly, human and mouse EPS cells were cultured on mitomycin C-inactivated mouse embryonic fibroblast (MEF) feeder cells (3×10^4 cells per cm^2), and were passaged by single-cell trypsinization (0.05% trypsin-EDTA, Invitrogen) every 2-4 days (normally at a split ratio of 1:6 to 1:10). Passage numbers of EPS cells indicate number of passages counted after the acquirement of the extended pluripotent state. The N2B27-LCDM medium was changed every day with fresh LCDM medium.
# Finally, the roles of DiM and MiH in maintaining EPS cells were investigated. […] Furthermore, similar results were obtained when MiH was replaced by the knockdown of PARP1 in hEPS cells (FIG. 4E). Importantly, both mEPS and hEPS cells still retained their ability of contributing to both TE and ICM in blastocysts under such conditions (FIG. 6C, 6D, and data not shown).
# primed hES/hPS H9 cells = assay: Screen for dome-shaped hES colony formation / TGFβ signaling-independent self-renewal; format: cell-based, human; conditions: hLIF+2i + candidate with SB431542
# From the text: Primed hES are flat colonies. By contrast, naïve human pluripotent cells are dome-shaped colonies. Therefore, any resultant human EPS cells can be morphologically distinguished from primed human pluripotent stem cells.
# Positive candidates from the first screen above were further screened in order to identify small molecules that support TGFβ signaling-independent self-renewal of hES cells (Tesar, et al., Dev., 448:196-199 (2007); James, et al.,Dev., 132:1273-1282 (2005); Vallier, et al., J. Cell. Sci., 118:4495-4509 (2005)). A TGFβ inhibitor SB431542 was added to the chemical cocktail (2i+LIF+candidate) at the later stage of treatment (FIG. 1A).
# Specifically, primed hES/hPS H9 cells were digested into single cells using ACCUTASE® (cell detachment solution), and seeded into a matrigel-coated 24-well plate (1×10^4 cells per well) on day 0 in conventional hES medium plus Y27632. On day 1, the conventional hES medium was replaced by the N2B27 medium supplemented with the hLIF+2i base, and candidates from the first round screen were added individually into each well. The medium was changed every two days and replaced with fresh N2B27 medium supplemented with hLIF+2i. 6 days later (i.e., on day 7), a TGF (transforming growth factor) β inhibitor, SB431542 (10 μm, Tocris), was added into wells with un-differentiated cells for another 6 days. […]
# mEPS cells = assay: Chimeric analysis of mEPS cells cultured under different conditions (injection into 8-cell embryos); format: cell-based, mouse; conditions: chimeric blastocysts; for developmental potency of mEPS cells when DiM is replaced by MAPK signaling inhibitor: replacement of DiM
# Description: FIGS. 6A and 6B show PCA of RNA-seq and microarray data from EPS cells and known pluripotent cell types. […] Data were normalized to mES cells in each study. […] Data were normalized to primed hPSCs in each study. […] Circles: RNA-seq data; triangles: microarray data. […] Parp1 knockout mEPS cells (Parp1-KO) were cultured in LCDM condition without MiH (-MiH). mEPS cells were cultured under different conditions for at least 5 passages before injection. Multiple cells were injected into 8-cell embryos, which were cultured for additional 60 hours before further analysis. […] ICM & TE, embryos with the integration of mouse cells into both ICM and TE. […] ICM & TE, embryos with the integration of mouse cells into both ICM and TE. TH: TripelennamineHCL; DES: Desloratadine; NAM: Nicotinamide. PD: PD0325901; SB: SB203580; SP: SP600125.
# For injection of Tdtomato-labeled mEPS cells and conventional naïve mouse ES cells, mEPS and naïve mouse ES cells were trypsinized and microinjected in the same way as for hEPS cells except that Y27632 was not added into the suspension.
# The cells used in this experiment were cultured and prepared in a way that was similar to that of the multiple-cell microinjections. The cell suspension was placed on ice for 20-30 minutes before injection. After being placed on ice, the digested single cells were used for injection within 1 hour: in other words, the whole injection process should not take more than 30 minutes. Afterward, the injected embryos are recovered for 1-2 hours in a humidified incubator with 5% CO2 at 37° C. If the cells were placed on ice for more than 1 hour, then another batch of cells was digested for the remaining injections. […] After 60 hours, the embryos were fixed and immunostained.
# [1] = withdrawal of either DiM or MiH
smiles,measurement,setting,value
"NC(=O)c1ccc(I)c([N+](=O)[O-])c1 [BSI-201, 4-iodo-3-nitrobenzamide]",maintenance of hEPS cells when DiM or MiH is replaced,hEPS cells,could be replaced with other inhibitors targeting the same targets for the maintenance of hEPS cells
Clc1ccc2c(c1)CCc1cccnc1C2=C1CCNCC1 [Desloratadine],maintenance of hEPS cells when DiM or MiH is replaced,hEPS cells,could be replaced with other inhibitors targeting the same targets for the maintenance of hEPS cells
"C[C@@H](C1=C(CCN(C)C)Cc2ccccc21)c1ccccn1.O=C(O)/C=C\C(=O)O [DiM, (S)-(+)-Dimethindene maleate]",effect of withdrawal from LCDM on hEPS cells,hEPS cells; [1],rapid differentiation of hEPS cells within days after plating
same,dome-shaped hES colony formation,primed hES/hPS H9 cells,support dome-shaped hES colony formation
same,effect of withdrawal from LCDM on developmental potency of mEPS cells,mEPS cells; [1],significantly impaired the developmental potency of mEPS cells
NC(=O)c1cccnc1 [Nicotinamide],maintenance of hEPS cells when DiM or MiH is replaced,hEPS cells,could be replaced with other inhibitors targeting the same targets for the maintenance of hEPS cells
O=C(NOC[C@H](O)CO)c1ccc(F)c(F)c1Nc1ccc(I)cc1F [PD0325901],maintenance of hEPS cells when DiM is replaced by MAPK signaling inhibitor,hEPS cells,could not maintain hEPS cells
same,developmental potency of mEPS cells when DiM is replaced by MAPK signaling inhibitor,mEPS cells,could not preserve the developmental potency of mEPS cells
C[S+]([O-])c1ccc(-c2nc(-c3ccncc3)c(-c3ccc(F)cc3)[nH]2)cc1 (centres unmarked) [SB203580],maintenance of hEPS cells when DiM is replaced by MAPK signaling inhibitor,hEPS cells,could not maintain hEPS cells
same,developmental potency of mEPS cells when DiM is replaced by MAPK signaling inhibitor,mEPS cells,could not preserve the developmental potency of mEPS cells
"CN(C)CCN(Cc1ccccc1)c1ccccn1 [TripelennamineHCL, Tripelennamine HCL]",maintenance of hEPS cells when DiM or MiH is replaced,hEPS cells,could be replaced with other inhibitors targeting the same targets for the maintenance of hEPS cells
